In patent US6479493B1, “Methods for treatment of type I diabetes” (Cell Pathways, Inc., priority 2001, dated 2002):
Counter-ions that a name gives are not always drawn.

Experiments:
[1] = molecular target: T1, cGMP binding sites of the GST-cGB-PDE5 fusion protein (Homo sapiens, UniProt O76074); experiment: cGMP binding assay with GST-cGB-PDE5 fusion protein; conditions: 3H-cGMP 2 μM, 22° C., 1 hour
T1 construct: made in house; host or cells: E. coli BL21 (DE3)
Excerpt: RT-PCR method is used to obtain the cGB domain of PDE5 with forward and reverse primers designed from bovine PDE5A cDNA sequence (McAllister-Lucas L. M. et al, J. Biol. Chem. 268, 22863-22873, 1993) and the selection among PDE 1-10 families. 5′-3′, Inc. kits for total RNA followed by oligo (dT) column purification of mRNA are used with HT-29 cells. […] It is then cloned into pGEX-5X-3 glutathione-S-ransferase (GST) fusion vector (Pharmacia Biotech )with tac promoter, and EcoRI and XhoI cut sites. The fusion vector is then transfected into E. Coli BL21 (DE3) bacteria (Invitrogen). The transfected BL21 bacteria is grown to log phase, and then IPTG is added as an inducer. The induction is carried at 20° C. for 24 hrs. The bacteria are harvested and lysed. The soluble cell lysate is incubated with GSH conjugated Sepharose 4B (GSH-Sepharose 4B). The GST-cGB-pDE5 fusion protein can bind to the GSH-Sepharose beads, and the other proteins are washed off from beads with excessive cold PBS.
Then, the mixture is transferred to Brandel MB-24 cell harvester with GF/B as the filter membrane followed by 2 washes with 10 mL of cold 5 mM potassium buffer(pH 6.8). The membranes are then cut out and transferred to scintillation vials followed by the addition of 1 mL of H2O and 6 mL of Ready Safe™ liquid scintillation cocktail to each vial. The vials are counted on a Beckman LS 6500 scintillation counter.
The quenching by filter membrane or other debris are also calibrated.

PDE1 = experiment: PDE inhibition, similar protocols; assay type: biochemical
rats = experiment: acute toxicity study in rats; conditions: rat, in vivo

Compound: CC1=C(CC(=O)NCc2ccccc2)c2cc(F)ccc2/C1=C\c1ccncc1 [Example 38, (Z)-5-Fluoro-2-methyl-(4-pyridylidene)-3-(N-benzyl)indenylacetamide Hydrochloride]
- competition with cGMP in binding to the cGMP binding sites of GST-cGB-PDE5 [1]: does not bind to the cGMP-binding site of PDE5
- IC50 (PDE1): 3000 nM
- body weight gain (rats; ip, 1000 mg/kg): reduced body weight gain
- necropsy findings (rats; ip, 1000 mg/kg): mesenteric adhesions seen in some animals
- body weight gains (rats; po, 2000 mg/kg): slightly reduced
